Laboratory results as given in PubChem BioAssay AID248 (DTP/NCI, 2004).
Several values for one entry are separate records, joined by “and”; a condition that tells them apart may be missing. Identical values can stand only once. Toxic doses and inconclusive results are not listed. Rule as the data show it: active = T/C of 150% or more; inactive = T/C below 125%.

System: L1210 leukemia ip in BDF1 mice, survival T/C
Experiment: NCI In Vivo Anticancer Drug Screen. Data for tumor model L1210 Leukemia (intraperitoneal) in B6D2F1 (BDF1) mice
Settings: endpoint: mean survival time, higher = longer survival
In short: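 Antitumor effect is assessed in tumor-bearing animals. Survival in the compound arm is compared with a vehicle-dosed control arm and expressed as their quotient.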

[1] = dose: 100.0 mg/kg/injection, schedule: Q01DX009 (ip), vehicle: Klucel (hydroxypropylcellulose) (HPC)
[2] = dose: 200.0 mg/kg/injection, schedule: Q01DX009 (ip), vehicle: Klucel (hydroxypropylcellulose) (HPC)
[3] = dose: 400.0 mg/kg/injection, schedule: Q01DX009 (ip), vehicle: Klucel (hydroxypropylcellulose) (HPC)
[4] = dose: 100.0 mg/kg/injection, schedule: Q04DX003 (ip), vehicle: saline with Tween-80
[5] = dose: 200.0 mg/kg/injection, schedule: Q04DX003 (ip), vehicle: saline with Tween-80
[6] = dose: 400.0 mg/kg/injection, schedule: Q04DX003 (ip), vehicle: saline with Tween-80
[7] = dose: 100.0 mg/kg/injection, schedule: Q01DX009 (ip), vehicle: saline with Tween-80
[8] = dose: 200.0 mg/kg/injection, schedule: Q01DX009 (ip), vehicle: saline with Tween-80
[9] = dose: 400.0 mg/kg/injection, schedule: Q01DX009 (ip), vehicle: saline with Tween-80
[10] = dose: 100.0 mg/kg/injection, schedule: Q01DX001 (ip), vehicle: saline with Tween-80
[11] = dose: 200.0 mg/kg/injection, schedule: Q01DX001 (ip), vehicle: saline with Tween-80
[12] = dose: 400.0 mg/kg/injection, schedule: Q01DX001 (ip), vehicle: saline with Tween-80
[13] = dose: 50.0 mg/kg/injection, schedule: Q01DX009 (ip), vehicle: saline with Tween-80
[14] = dose: 100.0 mg/kg/injection, schedule: Q04DX003 (ip), vehicle: Klucel (hydroxypropylcellulose) (HPC)
[15] = dose: 200.0 mg/kg/injection, schedule: Q04DX003 (ip), vehicle: Klucel (hydroxypropylcellulose) (HPC)
[16] = dose: 400.0 mg/kg/injection, schedule: Q04DX003 (ip), vehicle: Klucel (hydroxypropylcellulose) (HPC)
[17] = dose: 100.0 mg/kg/injection, schedule: Q04DX003 (ip), vehicle: saline
[18] = dose: 50.0 mg/kg/injection, schedule: Q01DX001 (ip), vehicle: carboxymethylcellulose (CMC)
[19] = dose: 100.0 mg/kg/injection, schedule: Q01DX001 (ip), vehicle: carboxymethylcellulose (CMC)
[20] = dose: 200.0 mg/kg/injection, schedule: Q01DX001 (ip), vehicle: carboxymethylcellulose (CMC)
[21] = dose: 400.0 mg/kg/injection, schedule: Q01DX001 (ip), vehicle: carboxymethylcellulose (CMC)
[22] = dose: 100.0 mg/kg/injection, schedule: Q01DX001 (ip), vehicle: saline
[23] = dose: 200.0 mg/kg/injection, schedule: Q01DX001 (ip), vehicle: saline
[24] = dose: 400.0 mg/kg/injection, schedule: Q01DX001 (ip), vehicle: saline
[25] = dose: 25.0 mg/kg/injection, schedule: Q04DX003 (ip), vehicle: saline with Tween-80
[26] = dose: 50.0 mg/kg/injection, schedule: Q04DX003 (ip), vehicle: saline with Tween-80

Measured: T/C

CC(=O)Nc1ccc(/C=N/Nc2ccccc2)cc1
inactive: [1] 101 % of control | [2] 103 % of control | [3] 101 % of control

N#CSC(C(=O)c1ccccc1)c1ccccc1 (centres undefined)
inactive: [4] 92 % of control | [5] 91 % of control | [6] 92 % of control

O=C(c1ccc(F)cc1)c1ccc2ccccc2c1
inactive: [1] 98 % of control | dose: 100.0 mg/kg/injection, schedule: Q04DX003 (ip), vehicle: other 97 % of control | [2] 95 % of control | dose: 200.0 mg/kg/injection, schedule: Q04DX003 (ip), vehicle: other 94 % of control | [3] 92 % of control | dose: 400.0 mg/kg/injection, schedule: Q04DX003 (ip), vehicle: other 94 % of control

C=C[CH2][Sn]([Br])([Br])[CH2]C=C
inactive: [7] 106 % of control | [8] 95 % of control | [9] 95 % of control

O=C1C=CC(=Nc2ccc(O)c3ncccc23)c2cccnc21
inactive: dose: 100.0 mg/kg/injection, schedule: Q01DX001 (ip), vehicle: other 104 % of control and 114 % of control | dose: 200.0 mg/kg/injection, schedule: Q01DX001 (ip), vehicle: other 106 % of control and 108 % of control | dose: 400.0 mg/kg/injection, schedule: Q01DX001 (ip), vehicle: other 102 % of control

CC(Cc1ccccc1)C(=O)c1ccccc1 (centres undefined)
inactive: [10] 102 % of control | [7] 102 % of control | [11] 94 % of control | [8] 97 % of control | [12] 94 % of control | [9] 98 % of control

O=C1N(Cl)C(=O)C(c2ccc(C(F)(F)F)cc2)(c2ccc(C(F)(F)F)cc2)N1Cl
inactive: [13] 88 % of control | [7] 100 % of control | [4] 102 % of control | [5] 100 % of control

FN1C(F)(F)C(F)(F)C(F)(F)C(F)(F)C1(F)F
inactive: dose: 100.0 mg/kg/injection, schedule: Q01DX001 (ip), vehicle: acetone 100 % of control | dose: 200.0 mg/kg/injection, schedule: Q01DX001 (ip), vehicle: acetone 87 % of control | dose: 400.0 mg/kg/injection, schedule: Q01DX001 (ip), vehicle: acetone 92 % of control

O=[N+]([O-])c1ccc(CS(=O)Cc2ccccc2)cc1 (centres undefined)
inactive: dose: 75.0 mg/kg/injection, schedule: Q01DX001 (ip), vehicle: carboxymethylcellulose (CMC) 91 % of control | dose: 150.0 mg/kg/injection, schedule: Q01DX001 (ip), vehicle: carboxymethylcellulose (CMC) 100 % of control | dose: 300.0 mg/kg/injection, schedule: Q01DX001 (ip), vehicle: carboxymethylcellulose (CMC) 100 % of control

COc1ccc(NC(=O)COc2ccc(Cl)cc2)cc1
inactive: [1] 93 % of control | [14] 100 % of control | [2] 90 % of control | [15] 106 % of control | [3] 92 % of control | [16] 93 % of control

CCCCCCOC(=O)Nc1cccc(O)c1
inactive: [4] 104 % of control | [5] 101 % of control | [6] 91 % of control

S=C(NCc1ccccc1)Nc1ccccc1
inactive: [4] 96 % of control | [5] 94 % of control

Cc1ccc2c(c1)SCc1c-2[nH]c2ccccc12
inactive: [4] 103 % of control | [5] 100 % of control | [6] 108 % of control

CCOC(=O)C(C)(C)CN(C)CC(C)(C)C=O
inactive: dose: 100.0 mg/kg/injection, schedule: Q04DX002 (ip), vehicle: saline 97 % of control | dose: 200.0 mg/kg/injection, schedule: Q04DX002 (ip), vehicle: saline 108 % of control | dose: 400.0 mg/kg/injection, schedule: Q04DX002 (ip), vehicle: saline 101 % of control

O=COc1ccc([N+](=O)[O-])cc1
inactive: dose: 25.0 mg/kg/injection, schedule: Q01DX009 (ip), vehicle: saline 98 % of control | dose: 50.0 mg/kg/injection, schedule: Q01DX009 (ip), vehicle: saline 95 % of control | dose: 100.0 mg/kg/injection, schedule: Q01DX009 (ip), vehicle: saline 98 % of control | [17] 101 % of control

O=C(NCCCCCCNC(=O)c1ccccc1)c1ccccc1
inactive: [18] 100 % of control | [19] 103 % of control | [20] 97 % of control | [21] 97 % of control

NC1=C(Cl)C(=O)C(N)=C(Cl)C1=O
inactive: [4] 98 % of control | [5] 98 % of control | [6] 88 % of control

O=[N+]([O-])/C=C/c1ccc(Cl)cc1Cl
inactive: dose: 20.0 mg/kg/injection, schedule: Q01DX009 (ip), vehicle: saline with Tween-80 98 % of control | dose: 20.0 mg/kg/injection, schedule: Q04DX003 (ip), vehicle: saline with Tween-80 90 % of control | dose: 25.0 mg/kg/injection, schedule: Q04DX002 (ip), vehicle: Klucel (hydroxypropylcellulose) (HPC) 106 % of control | dose: 40.0 mg/kg/injection, schedule: Q01DX009 (ip), vehicle: saline with Tween-80 102 % of control | dose: 40.0 mg/kg/injection, schedule: Q04DX003 (ip), vehicle: saline with Tween-80 101 % of control | [18] 95 % of control | dose: 50.0 mg/kg/injection, schedule: Q04DX002 (ip), vehicle: Klucel (hydroxypropylcellulose) (HPC) 100 % of control | dose: 80.0 mg/kg/injection, schedule: Q04DX003 (ip), vehicle: saline with Tween-80 111 % of control | [19] 98 % of control | [20] 89 % of control | [21] 101 % of control

O=C(O)C1OC(n2cc(I)c(=O)[nH]c2=O)CC1O (centres undefined)
inactive: [22] 107 % of control | [23] 103 % of control | [24] 100 % of control

O=C(O)C1CCC(=O)C2CCCCC12 (centres undefined)
inactive: [22] 97 % of control | [23] 94 % of control | [24] 95 % of control

C/C=C/COc1cc[n+]([O-])cc1
inactive: [17] 102 % of control | dose: 200.0 mg/kg/injection, schedule: Q04DX003 (ip), vehicle: saline 107 % of control

CC(=O)OC(COS(=O)(=O)c1ccc(C)cc1)C1OCOC(COS(=O)(=O)c2ccc(C)cc2)C1OC(C)=O (centres undefined)
inactive: [10] 92 % of control | [11] 93 % of control | [12] 95 % of control

CCCCC(=O)N/N=C/c1ccc(Br)cc1
inactive: [22] 100 % of control | [23] 97 % of control | [24] 102 % of control

Cc1nc2ccccc2c(Oc2ccccc2)c1-c1ccccc1
inactive: dose: 50.0 mg/kg/injection, schedule: Q01DX001 (ip), vehicle: saline 102 % of control | [22] 102 % of control | [23] 104 % of control | [24] 96 % of control

[N-]=Cc1c(O)cccc1[N+](=O)[O-].[N-]=Cc1cc([N+](=O)[O-])ccc1O.[Ni+2]
inactive: dose: 12.5 mg/kg/injection, schedule: Q04DX003 (ip), vehicle: saline with Tween-80 95 % of control | [25] 98 % of control | [26] 95 % of control | [4] 92 % of control | [5] 86 % of control

CCOC(=O)NP(NC(=O)NOC)NC(=O)OCC
inactive: [19] 101 % of control | [20] 93 % of control | [21] 101 % of control

C(/C=C/c1ccccc1)=Nc1ccc2c(c1)Cc1ccccc1-2
inactive: [14] 94 % of control | [15] 89 % of control | [16] 89 % of control

O=C(CCN1CC1)OC1CCCCCC1
inactive: dose: 6.25 mg/kg/injection, schedule: Q01DX009 (ip), vehicle: Klucel (hydroxypropylcellulose) (HPC) 100 % of control | dose: 12.5 mg/kg/injection, schedule: Q01DX009 (ip), vehicle: Klucel (hydroxypropylcellulose) (HPC) 100 % of control | dose: 25.0 mg/kg/injection, schedule: Q01DX009 (ip), vehicle: Klucel (hydroxypropylcellulose) (HPC) 95 % of control | [14] 104 % of control | [15] 101 % of control

COC(=O)Nc1cccc(NC(=O)C(=O)O)c1
inactive: dose: 25.0 mg/kg/injection, schedule: Q01DX009 (ip), vehicle: saline with Tween-80 105 % of control | [25] 107 % of control | [13] 98 % of control | [26] 105 % of control | [7] 102 % of control | [4] 94 % of control and 100 % of control | [5] 105 % of control
